{"source": "patent US9661847B2", "about": "“Antimicrobial preservative compositions for personal care products” (Galaxy Surfactants Ltd., priority 2011, dated 2017)", "key": {"[1]": {"conditions": "0.1% aqueous solution at 25° C., from 72 dynes/cm; cited from earlier work"}, "[2]": {"system": "Gram positive, Gram negative bacteria, yeast and mould", "experiment": "Minimum inhibitory concentration, whole panel of microbes", "format": "cell-based", "conditions": "for Antimicrobial activity, in words: up to 1.0% concentration"}, "[3]": {"experiment": "Reduction of surface tension of water", "format": "physicochemical"}, "[4]": {"system": "Bacillus subtilis ATCC 9372", "experiment": "Minimum inhibitory concentration", "format": "cell-based", "conditions": "B. subtilis"}, "[5]": {"system": "Malassezia furfur MTCC 1374", "experiment": "Minimum inhibitory concentration", "format": "cell-based", "conditions": "M. furfur"}, "[6]": {"system": "Aspergillus niger ATCC 16404", "experiment": "Minimum inhibitory concentration", "format": "cell-based", "conditions": "for Concentration of individual component at the MIC of the blend: A. niger"}, "[7]": {"system": "Candida albicans ATCC 10231", "experiment": "Minimum inhibitory concentration", "format": "cell-based", "conditions": "for Concentration of individual component at the MIC of the blend: C. albicans"}, "[8]": {"system": "Staphylococcus aureus ATCC 6538S", "experiment": "Minimum inhibitory concentration", "format": "cell-based"}, "[9]": {"system": "Pseudomonas aeruginosa Immuno type IV", "experiment": "Minimum inhibitory concentration", "format": "cell-based", "conditions": "P. aeruginosa"}, "[10]": {"system": "Escherichia coli ATCC 10142", "experiment": "Minimum inhibitory concentration", "format": "cell-based", "conditions": "E. coli"}, "[11]": {"system": "Propionibacterium acnes MTCC 1951", "experiment": "Minimum inhibitory concentration", "format": "cell-based", "conditions": "P. acnes"}}, "note": "Where two headings read alike, the source gives them in different places.", "data": [{"smiles": "CCCCC(CC)COCC(O)CO", "note": "(stereo not shown) [2-ethyl hexyl glyceryl ether, 3-(2-ethylhexyl)oxy 1,2-propanediol]", "values": [{"measurement": "Surface tension of water reduced to", "setting": "[1]", "value": 32, "unit": "dynes/cm"}]}, {"smiles": "CCCCCCCC(=O)NCCO", "note": "[Octanoyl MEA amide, N-(2-hydroxylethyl)caprylic acid amide]", "values": [{"measurement": "Antimicrobial activity, in words", "setting": "[2]", "value": "did not exhibit any antibacterial activity"}, {"measurement": "Surface tension of water reduced to", "setting": "[3]; 0.05% level", "value": 38, "unit": "dynes/cm"}, {"measurement": "Surface tension of water", "setting": "[3]; 0.05% solution", "value": 38.5, "unit": "dyne/cm"}, {"measurement": "Surface tension of water reduced to", "setting": "[3]; 0.1% concentration", "value": 30, "unit": "dynes/cm"}, {"measurement": "Surface tension of water", "setting": "[3]; 0.1% solution", "value": 30.5, "unit": "dyne/cm"}]}, {"smiles": "OCCOc1ccccc1", "note": "[Phenoxy ethanol, 2-Phenoxy ethanol]", "values": [{"measurement": "Concentration of individual component at the MIC of the blend", "setting": "[4]; within Preservative Blend No 2", "value": 1600, "unit": "ppm"}, {"measurement": "Concentration of individual component at the MIC of the blend", "setting": "[5]; within Preservative Blend No 2", "value": 3200, "unit": "ppm"}, {"measurement": "Concentration of phenoxy ethanol in combination enough to kill the organism", "setting": "[6]; in combination with [A] and [B] of Preservative Blend No 1, Aspergillus", "value": "around 0.25%"}, {"measurement": "Concentration of phenoxy ethanol in combination enough to kill the organism", "setting": "[7]; in combination with [A] and [B] of Preservative Blend No 1, Candida", "value": "around 0.25%"}]}, {"smiles": "C=CCCCCCCCCC(=O)NCCO", "note": "[Undecylenoyl MEA amide, N-undecylenoyl monoethanol amide]", "values": [{"measurement": "Concentration of individual component at the MIC of the blend", "setting": "[8]; within Preservative Blend No 1", "value": 200, "unit": "ppm"}, {"measurement": "Concentration of individual component at the MIC of the blend", "setting": "[8]; within Preservative Blend No 2", "value": 300, "unit": "ppm"}, {"measurement": "Concentration of individual component at the MIC of the blend", "setting": "[9]; within Preservative Blend No 1", "value": 200, "unit": "ppm"}, {"measurement": "Concentration of individual component at the MIC of the blend", "setting": "[9]; within Preservative Blend No 2", "value": 300, "unit": "ppm"}, {"measurement": "Concentration of individual component at the MIC of the blend", "setting": "[10]; within Preservative Blend No 1", "value": 200, "unit": "ppm"}, {"measurement": "Concentration of individual component at the MIC of the blend", "setting": "[10]; within Preservative Blend No 2", "value": 300, "unit": "ppm"}, {"measurement": "Concentration of individual component at the MIC of the blend", "setting": "[4]; within Preservative Blend No 1", "value": 200, "unit": "ppm"}, {"measurement": "Concentration of individual component at the MIC of the blend", "setting": "[4]; within Preservative Blend No 2", "value": 200, "unit": "ppm"}, {"measurement": "Concentration of individual component at the MIC of the blend", "setting": "[5]; within Preservative Blend No 1", "value": 400, "unit": "ppm"}, {"measurement": "Concentration of individual component at the MIC of the blend", "setting": "[5]; within Preservative Blend No 2", "value": 400, "unit": "ppm"}, {"measurement": "Concentration of individual component at the MIC of the blend", "setting": "[6]; within Preservative Blend No 1", "value": 300, "unit": "ppm"}, {"measurement": "Concentration of individual component at the MIC of the blend", "setting": "[6]; within Preservative Blend No 2", "value": 200, "unit": "ppm"}, {"measurement": "Concentration of individual component at the MIC of the blend", "setting": "[11]; within Preservative Blend No 1", "value": 300, "unit": "ppm"}, {"measurement": "Concentration of individual component at the MIC of the blend", "setting": "[11]; within Preservative Blend No 2", "value": 200, "unit": "ppm"}, {"measurement": "Concentration of individual component at the MIC of the blend", "setting": "[7]; within Preservative Blend No 1", "value": 300, "unit": "ppm"}, {"measurement": "Concentration of individual component at the MIC of the blend", "setting": "[7]; within Preservative Blend No 2", "value": 200, "unit": "ppm"}, {"measurement": "Concentration needed for antimicrobial activity of the ingredient by itself (range over microbes)", "setting": "[2]; ingredient alone, octanoyl glycine tested at neutral pH", "value": "> 10000", "unit": "ppm"}, {"measurement": "Antimicrobial activity, in words", "setting": "[2]", "value": "does not exhibit any antimicrobial activity"}]}]}
